# Laboratory results published in PubChem BioAssay (NCI).
#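 Results reflect a 48-hour exposure of cells in 96-well plates to compound at five concentrations. TGI marks complete inhibition of growth.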
# Key:
# Assay in all cases: NCI-60 cell line screen, 48 h
# CCRF-CEM leukemia = test system: CCRF-CEM leukemia
# K-562 leukemia = test system: K-562 leukemia
# SF-268 CNS = test system: SF-268 CNS
# SNB-19 CNS = test system: SNB-19 CNS
# HOP-92 NSCLC = test system: HOP-92 NSCLC
# CAKI-1 renal = test system: CAKI-1 renal
# NCI-H460 lung = test system: NCI-H460 lung
# SF-539 CNS = test system: SF-539 CNS
# HOP-62 NSCLC = test system: HOP-62 NSCLC
# SF-295 CNS = test system: SF-295 CNS
# LOX IMVI melanoma = test system: LOX IMVI melanoma
# LXFL 529 NSCLC = test system: LXFL 529 NSCLC
# KM12 colon = test system: KM12 colon
# SW-620 colon = test system: SW-620 colon
# M14 melanoma = test system: M14 melanoma
# DLD-1 colon = test system: DLD-1 colon
# UO-31 renal = test system: UO-31 renal
# OVCAR-8 ovarian = test system: OVCAR-8 ovarian
# UACC-62 melanoma = test system: UACC-62 melanoma
# SK-MEL-2 melanoma = test system: SK-MEL-2 melanoma
# HOP-18 NSCLC = test system: HOP-18 NSCLC
# 786-0 renal = test system: 786-0 renal
# IGROV1 ovarian = test system: IGROV1 ovarian
# XF 498 CNS = test system: XF 498 CNS
# KM20L2 colon = test system: KM20L2 colon
# TK-10 renal = test system: TK-10 renal
# U251 CNS = test system: U251 CNS
# A549 NSCLC = test system: A549 NSCLC
# HCC-2998 colon = test system: HCC-2998 colon
# SK-MEL-28 melanoma = test system: SK-MEL-28 melanoma
# HCT-15 colon = test system: HCT-15 colon
# HCT-116 colon = test system: HCT-116 colon
# UACC-257 melanoma = test system: UACC-257 melanoma
# SNB-75 CNS = test system: SNB-75 CNS
# SK-OV-3 ovarian = test system: SK-OV-3 ovarian
# SR leukemia = test system: SR leukemia
# SN12C renal = test system: SN12C renal
# NCI-H23 lung = test system: NCI-H23 lung
# HT29 colon = test system: HT29 colon
# HL-60(TB) leukemia = test system: HL-60(TB) leukemia
# A498 renal = test system: A498 renal
# OVCAR-5 ovarian = test system: OVCAR-5 ovarian
# COLO 205 colon = test system: COLO 205 colon
# SNB-78 CNS = test system: SNB-78 CNS
# DMS 114 small cell lung = test system: DMS 114 small cell lung
# MOLT-4 leukemia = test system: MOLT-4 leukemia
# ACHN renal = test system: ACHN renal
# MALME-3M melanoma = test system: MALME-3M melanoma
# SK-MEL-5 melanoma = test system: SK-MEL-5 melanoma
# OVCAR-3 ovarian = test system: OVCAR-3 ovarian
# EKVX NSCLC = test system: EKVX NSCLC
# DMS 273 small cell lung = test system: DMS 273 small cell lung
# M19-MEL melanoma = test system: M19-MEL melanoma
# RPMI-8226 leukemia = test system: RPMI-8226 leukemia
# RXF-631 renal = test system: RXF-631 renal
# RXF 393 renal = test system: RXF 393 renal
# NCI-H226 lung = test system: NCI-H226 lung
# OVCAR-4 ovarian = test system: OVCAR-4 ovarian
# NCI-H522 lung = test system: NCI-H522 lung
compound,measurement,setting,value
C(CCC[Te][Te]CCCCCCOC1CCCCO1)CCOC1CCCCO1 (stereo not drawn),TGI,CCRF-CEM leukemia,41.4 µM
same,TGI,K-562 leukemia,29.7 µM
same,TGI,SF-268 CNS,41.2 µM
same,TGI,SNB-19 CNS,29 µM
same,TGI,HOP-92 NSCLC,30.5 µM
same,TGI,CAKI-1 renal,82.6 µM
same,TGI,NCI-H460 lung,30 µM
same,TGI,SF-539 CNS,32.1 µM
same,TGI,HOP-62 NSCLC,33.7 µM
same,TGI,SF-295 CNS,32.1 µM
same,TGI,LOX IMVI melanoma,35.1 µM
same,TGI,LXFL 529 NSCLC,21.1 µM
same,TGI,KM12 colon,28.9 µM
same,TGI,SW-620 colon,45.2 µM
same,TGI,M14 melanoma,> 100 µM
same,TGI,DLD-1 colon,45.8 µM
same,TGI,UO-31 renal,77.3 µM
same,TGI,OVCAR-8 ovarian,33.9 µM
same,TGI,UACC-62 melanoma,23.6 µM
same,TGI,SK-MEL-2 melanoma,28.3 µM
same,TGI,HOP-18 NSCLC,51.4 µM
same,TGI,786-0 renal,29.4 µM
same,TGI,IGROV1 ovarian,48 µM
same,TGI,XF 498 CNS,21.9 µM
same,TGI,KM20L2 colon,28.7 µM
same,TGI,TK-10 renal,95.1 µM
same,TGI,U251 CNS,24.5 µM
same,TGI,A549 NSCLC,41.5 µM
same,TGI,HCC-2998 colon,27.9 µM
same,TGI,SK-MEL-28 melanoma,27.4 µM
same,TGI,HCT-15 colon,60.6 µM
same,TGI,HCT-116 colon,55.8 µM
same,TGI,UACC-257 melanoma,20.7 µM
same,TGI,SNB-75 CNS,33.7 µM
same,TGI,SK-OV-3 ovarian,80.7 µM
same,TGI,SR leukemia,38.2 µM
same,TGI,SN12C renal,29.4 µM
same,TGI,NCI-H23 lung,31.1 µM
same,TGI,HT29 colon,25.6 µM
same,TGI,HL-60(TB) leukemia,37.9 µM
same,TGI,A498 renal,37.8 µM
same,TGI,OVCAR-5 ovarian,33.4 µM
same,TGI,COLO 205 colon,36.5 µM
same,TGI,SNB-78 CNS,38.1 µM
same,TGI,DMS 114 small cell lung,25.5 µM
same,TGI,MOLT-4 leukemia,46.6 µM
same,TGI,ACHN renal,22.7 µM
same,TGI,MALME-3M melanoma,20.5 µM
CN(C)C(N)=NC#N,TGI,K-562 leukemia,> 100 µM
same,TGI,SF-268 CNS,> 100 µM
same,TGI,SNB-19 CNS,> 100 µM
same,TGI,HOP-92 NSCLC,> 100 µM
same,TGI,CAKI-1 renal,> 100 µM
same,TGI,NCI-H460 lung,> 100 µM
same,TGI,SF-539 CNS,> 100 µM
same,TGI,SK-MEL-5 melanoma,> 100 µM
same,TGI,HOP-62 NSCLC,> 100 µM
same,TGI,OVCAR-3 ovarian,> 100 µM
same,TGI,EKVX NSCLC,> 100 µM
same,TGI,SF-295 CNS,> 100 µM
same,TGI,DMS 273 small cell lung,> 100 µM
same,TGI,LXFL 529 NSCLC,> 100 µM
same,TGI,KM12 colon,> 100 µM
same,TGI,SW-620 colon,38.2 µM
same,TGI,M14 melanoma,> 100 µM
same,TGI,DLD-1 colon,> 100 µM
same,TGI,UO-31 renal,> 100 µM
same,TGI,OVCAR-8 ovarian,> 100 µM
same,TGI,UACC-62 melanoma,> 100 µM
same,TGI,SK-MEL-2 melanoma,> 100 µM
same,TGI,M19-MEL melanoma,> 100 µM
same,TGI,HOP-18 NSCLC,> 100 µM
same,TGI,786-0 renal,> 100 µM
same,TGI,IGROV1 ovarian,> 100 µM
same,TGI,KM20L2 colon,> 100 µM
same,TGI,TK-10 renal,> 100 µM
same,TGI,U251 CNS,> 100 µM
same,TGI,RPMI-8226 leukemia,> 100 µM
same,TGI,A549 NSCLC,> 100 µM
same,TGI,HCC-2998 colon,> 100 µM
same,TGI,SK-MEL-28 melanoma,> 100 µM
same,TGI,HCT-15 colon,34.8 µM
same,TGI,HCT-116 colon,> 100 µM
same,TGI,UACC-257 melanoma,> 100 µM
same,TGI,RXF-631 renal,> 100 µM
same,TGI,SNB-75 CNS,> 100 µM
same,TGI,SK-OV-3 ovarian,> 100 µM
same,TGI,SN12C renal,> 100 µM
same,TGI,NCI-H23 lung,> 100 µM
same,TGI,HT29 colon,> 100 µM
same,TGI,HL-60(TB) leukemia,> 100 µM
same,TGI,A498 renal,> 100 µM
same,TGI,OVCAR-5 ovarian,> 100 µM
same,TGI,RXF 393 renal,74.8 µM
same,TGI,COLO 205 colon,> 100 µM
same,TGI,SNB-78 CNS,> 100 µM
same,TGI,DMS 114 small cell lung,> 100 µM
same,TGI,MOLT-4 leukemia,> 100 µM
same,TGI,NCI-H226 lung,> 100 µM
same,TGI,ACHN renal,> 100 µM
same,TGI,OVCAR-4 ovarian,> 100 µM
same,TGI,NCI-H522 lung,> 100 µM
same,TGI,MALME-3M melanoma,> 100 µM
